According to US10604535B2, “Compounds, compositions and methods” (Denali Therapeutics Inc., priority 2016, dated 2020):

Target: GST-hRIPK1 (8-327) (Homo sapiens (Human), UniProt Q13546)
Assay: Fluorescent Polarization Binding (FP Binding) assay

Sequence of GST-hRIPK1 (8-327) (Q13546 8-327): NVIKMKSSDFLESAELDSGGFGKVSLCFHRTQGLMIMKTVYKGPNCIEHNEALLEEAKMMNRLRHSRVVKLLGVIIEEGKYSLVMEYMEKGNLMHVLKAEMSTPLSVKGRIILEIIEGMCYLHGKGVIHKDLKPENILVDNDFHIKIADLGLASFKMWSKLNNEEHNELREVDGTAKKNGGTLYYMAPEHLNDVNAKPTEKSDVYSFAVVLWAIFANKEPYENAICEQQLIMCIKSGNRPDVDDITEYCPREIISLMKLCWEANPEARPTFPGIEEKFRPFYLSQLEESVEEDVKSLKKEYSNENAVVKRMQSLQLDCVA

Row | SMILES | IC50
1 | O=C(N[C@H]1C(=O)Nc2ncccc2[C@H]2C[C@H]21)c1nnc(Cc2ccccc2)[nH]1 [Example 110A, 5-benzyl-N-((1aR,2R,8bS)-3-oxo-1,1a,2,3,4,8b-hexahydrocyclopropa[d]pyrido[2,3-b]azepin-2-yl)-4H-1,2,4-triazole-3-carboxamide] | > 3 µM
2 | CN1C(=O)[C@H](NC(=O)c2nn(Cc3ccccc3F)cc2F)[C@@H]2C[C@@H]2c2nccnc21 [Example 179B, 4-fluoro-1-(2-fluorobenzyl)-N-((7R,7aR,8aS)-5-methyl-6-oxo-5,6,7,7a,8,8a-hexahydrocyclopropa[d]pyrazino[2,3-b]azepin-7-yl)-1H-pyrazole-3-carboxamide] | > 3 µM
3 | CN1C(=O)[C@H](NC(=O)c2nnc(Cc3ccccc3)[nH]2)[C@@H]2C[C@@H]2c2nccnc21 [Example 119A, 5-benzyl-N-((7R,7aR,8aS)-5-methyl-6-oxo-5,6,7,7a,8,8a-hexahydro-cyclopropa[d]pyrazino[2,3-b]azepin-7-yl)-4H-1,2,4-triazole-3-carboxamide] | > 3 µM
4 | CN1C(=O)[C@H](NC(=O)c2nnc(Cc3ccccc3)s2)[C@@H]2C[C@@H]2c2cccnc21 [Example 120B, 5-benzyl-N-((1aR,2R,8bS)-4-methyl-3-oxo-1,1a,2,3,4,8b-hexahydrocyclopropa-[d]pyrido[2,3-b]azepin-2-yl)-1,3,4-thiadiazole-2-carboxamide] | > 3 µM
5 | CN1C(=O)[C@H](NC(=O)c2nnc(Cc3ccccc3)[nH]2)CC2(CC2)c2cccnc21 [Example 125A, (R)-5-benzyl-N-(9′-methyl-8′-oxo-6′,7′,8′,9′-tetrahydrospiro[cyclopropane-1,5′-pyrido[2,3-b]azepin]-7′-yl)-4H-1,2,4-triazole-3-carboxamide] | > 3 µM
6 | CN1C(=O)[C@@H](NC(=O)C2CN(Cc3ccccc3)C2)COc2ccccc21 [Example 33, (S)-1-benzyl-N-(5-methyl-4-oxo-2,3,4,5-tetrahydrobenzo[b][1,4]oxazepin-3-yl) azetidine-3-carboxamide] | > 10 µM
7 | N#Cc1cccc(Cc2nnc(C(=O)N[C@H]3C(=O)Nc4c(F)cc(F)cc4[C@H]4C[C@H]43)[nH]2)c1 [Example 181A, 5-(3-cyanobenzyl)-N-((1aR,2R,8bS)-5,7-difluoro-3-oxo-1,1a,2,3,4,8b-hexahydrobenzo[b]cyclopropa[d]azepin-2-yl)-4H-1,2,4-triazole-3-carboxamide] | > 3 µM
8 | [2H]C([2H])([2H])N1C(=O)[C@H](NC(=O)c2nn(Cc3ccccc3)cc2F)[C@@H]2C[C@@H]2c2cc(S(C)(=O)=O)ccc21 [Example 183A, 1-benzyl-4-fluoro-N-((1aR,2R,8bS)-4-trideuteriomethyl-7-(methylsulfonyl)-3-oxo-1,1a,2,3,4,8b-hexahydrobenzo[b]cyclopropa[d]azepin-2-yl)-1H-pyrazole-3-carboxamide] | > 3 µM
9 | CN1C(=O)[C@H](NC(=O)c2nn(Cc3ccccc3F)cc2F)CCc2nccnc21 [Example 178B, (R)-4-fluoro-1-(2-fluorobenzyl)-N-(5-methyl-6-oxo-6,7,8,9-tetrahydro-5H-pyrazino[2,3-b]azepin-7-yl)-1H-pyrazole-3-carboxamide] | > 3 µM
10 | O=C(N[C@@H]1CC2(CC2)c2cc(F)cc(F)c2NC1=O)c1nnc(Cc2ccccc2)[nH]1 [Example 103A, (R)-5-benzyl-N-(7,9-difluoro-2-oxo-1,2,3,4-tetrahydrospiro[benzo[b]azepine-5,1′-cyclopropan]-3-yl)-4H-1,2,4-triazole-3-carboxamide] | > 3 µM
11 | Cc1cc2n(n1)CC[C@@H](NC(=O)c1nnc(Cc3ccccc3)[nH]1)C(=O)N2C [Example 129B, (R)-5-Benzyl-N-(2,4-dimethyl-5-oxo-5,6,7,8-tetrahydro-4H-pyrazolo[1,5-a][1,3]diazepin-6-yl)-4H-1,2,4-triazole-3-carboxamide] | > 3 µM
12 | O=C(N[C@@H]1C(=O)Nc2c(F)cc(F)cc2[C@H]2C[C@@H]12)c1nnc(Cc2ccccc2)[nH]1 [Example 176, 5-benzyl-N-((1aR,2S,8bS)-5,7-difluoro-3-oxo-1,1a,2,3,4,8b-hexahydrobenzo[b]cyclopropa[d]azepin-2-yl)-4H-1,2,4-triazole-3-carboxamide] | 0.0001 to 1 µM
13 | Cn1ncc2c1CC[C@@H](NC(=O)c1nnc(Cc3ccccc3)[nH]1)C(=O)N2 [Example 118A, (R)-5-benzyl-N-(1-methyl-5-oxo-1,4,5,6,7,8-hexahydropyrazolo[4,3-b]azepin-6-yl)-4H-1,2,4-triazole-3-carboxamide] | > 3 µM

Continued, values first:

Row | IC50 | SMILES
14 | > 3 µM | Cc1ncccc1Cn1cc(F)c(C(=O)N[C@@H]2CCc3nccnc3N(C)C2=O)n1 [Example 182A, (R)-4-fluoro-N-(5-methyl-6-oxo-6,7,8,9-tetrahydro-5H-pyrazino[2,3-b]azepin-7-yl)-1-((2-methylpyridin-3-yl)methyl)-1H-pyrazole-3-carboxamide]
15 | 0.0001 to 1 µM | CN1C(=O)[C@@H](NC(=O)c2nnc(Cc3ccccc3)o2)CCc2nccnc21 [Example 190, (S)-5-benzyl-N-(5-methyl-6-oxo-6,7,8,9-tetrahydro-5H-pyrazino[2,3-b]azepin-7-yl)-1,3,4-oxadiazole-2-carboxamide]
16 | 0.0001 to 1 µM | CN1C(=O)[C@H](NC(=O)c2cc(Oc3ccccc3F)ccn2)[C@@H]2C[C@@H]2c2cccnc21 [Example 100B, 4-(2-fluorophenoxy)-N-((1aR,2R,8bS)-4-methyl-3-oxo-1,1a,2,3,4,8b-hexahydrocyclopropa[d]pyrido[2,3-b]azepin-2-yl)picolinamide]
17 | 0.0001 to 1 µM | O=C(N[C@H]1COc2cccnc2NC1=O)c1nnc(C2CCc3ccccc32)[nH]1 (single isomer, unassigned) [Example 102B]
18 | > 3 µM | Cc1nc2c(s1)CC[C@@H](NC(=O)c1nnc(Cc3ccccc3)[nH]1)C(=O)N2C [Example 38B, (R)-5-benzyl-N-(2,4-dimethyl-5-oxo-5,6,7,8-tetrahydro-4H-thiazolo[4,5-b]azepin-6-yl)-4H-1,2,4-triazole-3-carboxamide]
19 | > 3 µM | CN1C(=O)[C@H](NC(=O)c2nnc(C3(c4ccccc4)CC3)o2)CCc2cccnc21 [Example 145B, (R)—N-(9-methyl-8-oxo-6,7,8,9-tetrahydro-5H-pyrido[2,3-b]azepin-7-yl)-5-(1-phenylcyclopropyl)-1,3,4-oxadiazole-2-carboxamide]
20 | 1 to 10 µM | CN1C(=O)[C@H](NC(=O)c2nn(Cc3ccccc3)cc2F)CCc2cccnc21 [Example 111A, (R)-1-benzyl-4-fluoro-N-(9-methyl-8-oxo-6,7,8,9-tetrahydro-5H-pyrido[2,3-b]azepin-7-yl)-1H-pyrazole-3-carboxamide]
21 | 1 to 10 µM | Cn1ncc2c1CC[C@H](NC(=O)c1nnc(Cc3ccccc3)[nH]1)C(=O)N2 [Example 118B, (S)-5-benzyl-N-(1-methyl-5-oxo-1,4,5,6,7,8-hexahydropyrazolo[4,3-b]azepin-6-yl)-4H-1,2,4-triazole-3-carboxamide]
22 | 1 to 10 µM | CN1C(=O)[C@@H](NC(=O)c2ncc(S(=O)(=O)c3ccccc3)s2)COc2ccccc21 [Example 49, (S)—N-(5-methyl-4-oxo-2,3,4,5-tetrahydrobenzo[b][1,4]oxazepin-3-yl)-5-(phenylsulfonyl)thiazole-2-carboxamide]
23 | > 3 µM | O=C(N[C@@H]1CC2(CC2)c2cccnc2NC1=O)c1nnc(Cc2ccccc2)[nH]1 [Example 98A, (R)-5-benzyl-N-(8′-oxo-6′,7′,8′,9′-tetrahydrospiro[cyclopropane-1,5′-pyrido[2,3-b]azepin]-7′-yl)-4H-1,2,4-triazole-3-carboxamide]
24 | > 3 µM | CN1C(=O)[C@H](NC(=O)c2nn(Cc3cccc(C#N)c3)cc2F)CCc2cccnc21 [Example 152A, (R)-1-(3-cyanobenzyl)-4-fluoro-N-(9-methyl-8-oxo-6,7,8,9-tetrahydro-5H-pyrido[2,3-b]azepin-7-yl)-1H-pyrazole-3-carboxamide]
25 | 1 to 10 µM | O=C(N[C@H]1COc2cccnc2NC1=O)c1nnc(C2CCc3ccccc32)[nH]1 (single isomer, unassigned) [Example 102A]
26 | > 3 µM | CN1C(=O)C(NC(=O)c2nnc(Cc3ccccc3)[nH]2)[C@@H]2C[C@@H]2c2ccccc21 (stereo in doubt) [Example 46B, 5-benzyl-N-((2S)-4-methyl-3-oxo-1,1a,2,3,4,8b-hexahydrobenzo[b]cyclopropa[d]azepin-2-yl)-4H-1,2,4-triazole-3-carboxamide]
27 | 0.0001 to 1 µM | CN1C(=O)[C@@H](NC(=O)c2cc3n(n2)CC[C@@H]3c2ccccc2)COc2ccccc21 [Example 13, (R)—N—((S)-5-methyl-4-oxo-2,3,4,5-tetrahydrobenzo[b][1,4]oxazepin-3-yl)-4-phenyl-5,6-dihydro-4H-pyrrolo[1,2-b]pyrazole-2-carboxamide]
28 | 0.0001 to 1 µM | C[C@H]1Oc2ncccc2N(C)C(=O)[C@H]1NC(=O)c1nnc(Cc2ccccc2)o1 [Example 193, 5-benzyl-N-((3S,4R)-1,4-dimethyl-2-oxo-1,2,3,4-tetrahydropyrido[2,3-b][1,4]oxazepin-3-yl)-1,3,4-oxadiazole-2-carboxamide]
29 | 0.0001 to 1 µM | O=C(N[C@H]1CC2(CC2)c2cccnc2NC1=O)c1nnc(Cc2ccccc2)[nH]1 [Example 98B, (S)-5-benzyl-N-(8′-oxo-6′,7′,8′,9′-tetrahydrospiro[cyclopropane-1,5′-pyrido[2,3-b]azepin]-7′-yl)-4H-1,2,4-triazole-3-carboxamide]
30 | 0.0001 to 1 µM | CN1C(=O)[C@@H](NC(=O)c2cc(C#N)n(Cc3ccc(F)cc3)n2)COc2cccnc21 [Example 159, (S)-5-cyano-1-(4-fluorobenzyl)-N-(5-methyl-4-oxo-2,3,4,5-tetrahydropyrido[3,2-b][1,4]oxazepin-3-yl)-1H-pyrazole-3-carboxamide]
31 | 0.0001 to 1 µM | CN1C(=O)[C@@H](NC(=O)c2nnc(C3(c4ccccc4)CC3)[nH]2)COc2cnccc21 [Example 113, (S)—N-(1-methyl-2-oxo-1,2,3,4-tetrahydropyrido[3,4-b][1,4]oxazepin-3-yl)-5-(1-phenylcyclopropyl)-4H-1,2,4-triazole-3-carboxamide]
32 | 0.0001 to 1 µM | Cn1cc2c(n1)CC[C@H](NC(=O)c1nnc(Cc3ccccc3)[nH]1)C(=O)N2 [Example 104B, (S)-5-benzyl-N-(2-methyl-5-oxo-2,4,5,6,7,8-hexahydropyrazolo[4,3-b]azepin-6-yl)-4H-1,2,4-triazole-3-carboxamide]
